Like-named read-outs stand apart in the source and are kept apart here.
How the values were obtained:
LmajNT1 [1] = test: [3H]-thymidine uptake by L. major promastigotes; format: cell-based, Leishmania major
Experimental: (§1) Using the standard uptake technique as described for T. brucei and Leishmania species ([Wallace et al., 2002], [Al-Salabi and De Koning, 2005], [Gudin et al., 2006]), the dose- or time-dependent uptake of radiolabeled permeants was investigated.
(§2) Briefly, cells in the mid-to-late logarithmic stage of growth were harvested by centrifugation for 10 min at 1500×g. The cells were washed twice with transport assay buffer (AB: 33 mM HEPES, 98 mM NaCl, 4.6 mM KCl, 0.55 mM CaCl2, 0.07 mM MgSO4, 5.8 mM NaH2PO4, 0.3 mM MgCl2, 23 mM NaHCO3, 14 mM glucose, pH 7.3), resuspended at a density of 10^8 cells ml^−1 in AB, and left for 20–30 min at room temperature to recover from centrifugation stress. One hundred microliters of cell suspension was incubated at ambient temperature for a predetermined time with 100 μl radiolabeled test compound, in the presence or absence of unlabeled substrate or other competitive inhibitors. The incubation was terminated by the addition of ice-cold stop solution (AB containing saturating levels, usually 10 mM, of unlabeled permeant) and centrifugation through oil for 1 min at 13,000 × g. […] Radioactivity was determined by liquid scintillation counting in a Beckman LS6000 TA scintillation counter. Saturation data, inhibition data, and time courses were plotted to equations for linear or non-linear regression (hyperbolic or sigmoid curves), as appropriate. All experiments were performed in triplicate and on at least three independent occasions.
Subsequent experiments were performed with a 5 min incubation time.

[2] = tested on: L. major promastigotes WT; test: Alamar blue drug sensitivity assay, L. major WT; format: cell-based, Leishmania major
Experimental: (§3) Sensitivity assays of Leishmania strains to various drugs using the viability dye resazurin (Alamar Blue) (Sigma-Aldrich) were performed using a protocol adapted from [Räz et al. (1997)], as described ([Al-Salabi et al., 2003], [Gould et al., 2008]). Pentamidine and diminazene were used as non-nucleoside controls and were obtained from Sigma-Aldrich, as were many purines, pyrimidines, and analogs, with the exceptions of 2-thiouridine and 4-thiouridine (TriLink BioTechnologies, San Diego, CA); 5′-deoxyuridine, and 2′-3′-dideoxyuridine (Carbosynth, Compton, UK); 5-fluoro-2′-deoxyuridine (Fluka); and 2-thiouracil (ICN Biomedicals, Cambridge, UK). A preliminary promastigote culture was diluted to a density of 2 × 10^6 cells/ml, of which 100 μl was added to wells of 96-well plates pre-loaded with 100 μl of doubling dilutions of test compounds, resulting in a final density of 1 × 10^6 cells/ml; the dilutions were over 2 rows of the plate (23 concentrations), with the last well containing only medium and serving as the no-drug control. The plates were incubated at 25 °C for 72 h before adding the Alamar Blue dye (20 μl of 12.5 mg resazurin sodium salt (Sigma) in 100 ml phosphate buffered saline (PBS; pH 7.4)). Since Leishmania parasites metabolize the Alamar Blue dye slower than trypanosomes ([Gould et al., 2008]), the cells were incubated with the dye for a further period of 48 h before measuring the fluorescence, using a FLUOstar Optima fluorimeter (BMG Labtech) at wavelengths of 544 nm for excitation and 620 nm for emission. […] Each experiment was performed independently at least 4 times; statistical significance was determined using Student's unpaired t-test.

Lmaj5FURes = test: microbe, parasite or virus in culture; format: cell-based, Leishmania major
Experimental: as §3

Lmaj5F2′dURes = test: microbe, parasite or virus in culture; format: cell-based, Leishmania major
Experimental: as §3

Lmex5F2′dURes = test: microbe, parasite or virus in culture; format: cell-based, Leishmania mexicana
Experimental: as §3

Lmex5FURes = test: microbe, parasite or virus in culture; format: cell-based, Leishmania mexicana
Experimental: as §3

[3] = tested on: L. mexicana promastigotes WT; test: Alamar blue drug sensitivity assay, L. mexicana WT; format: cell-based, Leishmania mexicana; settings: for activity against L. mexicana promastigotes: at concentrations up to 5 mM
Experimental: as §3

L. major promastigotes = test: metabolomic analysis of treated L. major promastigotes; format: cell-based, Leishmania major; settings: 100 μM, 8 h
Experimental: (§4) Metabolomics analysis of the Leishmania promastigotes was undertaken in triplicate, exactly as described ([Ali et al., 2013a]). Briefly, cells were grown to log phase stage, resuspended at 2 × 10^6 cells/ml in 50 ml HOMEM/FBS and incubated 8 h with 100 μM of test compound (standard conditions) before transfer to a 50-ml centrifuge tube for instantaneous cooling (dry ice/ethanol bath, 4 °C) and centrifugation (2500 rpm, 10 min, 4 °C). The pellet was lysed with 200 μl of chloroform/methanol/water (1:3:1 v/v/v) containing mass spectrometry standards, and vigorous mixing (1 h, 4 °C); cell debris was removed by centrifugation and the metabolite extracts were stored in HPLC vials at −80 °C. Control samples were prepared in parallel and included untreated cells, unused growth medium, test compound solution and extraction solvent blanks. The analysis used a hydrophilic interaction liquid chromatography (HILIC-LC) fitted with a zwitterionic ZIC-pHILIC column (Merck Sequant), coupled to high resolution mass spectrometry (MS) using a Thermo Q-Exactive, and metabolomic data outputs were analyzed using the IDEOM application (http://mzmatch.sourceforge.net/ideom.php) with default parameters ([Creek et al., 2012]) exactly as described ([Ali et al., 2013a]). The lower limit of detection was set to 500 intensity units for all reported metabolites, in order to prevent spurious identification of low level signals.
(§5) The mechanism of action of the fluorinated pyrimidines was investigated using a metabolomics approach, where promastigotes of L. mexicana and L. major were incubated for 8 h with 100 μM of either 5-FU, 5F-2′dUrd or 5F-Urd prior to metabolite extraction and mass spectrometric analysis as described ([Ali et al., 2013a], [Alkhaldi et al., 2015]). These conditions were chosen to allow for significant metabolite accumulation while not affecting cell viability or growth rate, which could broadly affect metabolite levels.

[4] = tested on: L. mexicana promastigotes; test: metabolomic analysis of treated L. mexicana promastigotes; format: cell-based, Leishmania mexicana; settings: 100 μM, 8 h
Experimental: as §4, §5

LmajNT1 [5] = test: [3H]-uridine uptake by L. major promastigotes, low-affinity component; format: cell-based, Leishmania major; settings: inhibition of 0.25 μM [3H]-uridine uptake
Experimental: as §1, §2

LmexNT1 [6] = test: [3H]-adenosine uptake by L. mexicana promastigotes; format: cell-based, Leishmania mexicana; settings: inhibition of 0.05 μM [3H]-adenosine uptake; read-out: Ki
Excerpt: Using the standard uptake technique as described for T. brucei and Leishmania species ([Wallace et al., 2002], [Al-Salabi and De Koning, 2005], [Gudin et al., 2006]), the dose- or time-dependent uptake of radiolabeled permeants was investigated. The following radiolabels and specific activities were used: [^3H]-thymidine (Perkin Elmer; 56.6 Ci/mmol); [^3H]-adenosine (American Radiolabeled Chemicals UK; 40 Ci/mmol); [^3H]-uridine (American Radiolabeled Chemicals UK; 30 Ci/mmol); [^3H]-uracil (Perkin Elmer; 24.8 Ci/mmol); [^3H]-inosine (American Radiolabeled Chemicals UK; 20 Ci/mmol); [^3H]-5-fluorouracil (Moravek; 20 Ci/mmol).
as §2
We next investigated the transport of [^3H]-adenosine in L. mexicana promastigotes, which according to the efficient inhibition of [^3H]-thymidine by adenosine, should be taken up with high affinity.

LmexNT1 [7] = format: cell-based, Leishmania mexicana; settings: inhibition of 0.25 μM [3H]-uridine uptake in the presence of 1 mM uracil
Experimental: as §1, §2

LmajUUT1 = test: [3H]-uridine uptake by L. major promastigotes, high-affinity uracil-sensitive component; format: cell-based, Leishmania major; settings: inhibition of 0.25 μM [3H]-uridine uptake
Experimental: as §1, §2

LmexNT1 [8] = format: cell-based, Leishmania mexicana; settings: for rate of uptake: 1 μM [3H]-thymidine
Experimental: as §1, §2
L. donovani is known to express one pyrimidine nucleoside transporter, LdNT1, which also transports adenosine ([Vasudevan et al., 1998], [De Koning et al., 2005]). In order to investigate whether this model held true for L. mexicana, the uptake of [^3H]-thymidine was studied. […] Care was taken throughout this study that whenever inhibition constants (Ki) or Michaelis-Menten constants (Km) were determined the conditions used had been verified to be well within the linear range of uptake.

[9] = n = 3, SEM, untreated: not detected (<500)

Question: Which results are given for `O=c1[nH]c(=O)n([C@@H]2O[C@H](CO)[C@@H](O)[C@H]2O)cc1F` [5F-Urd, 5-Fluorouridine]?
Answer: Ki (LmajNT1 [1]; inhibition of 0.25 μM [3H]-thymidine uptake (total LmajNT1.1 + LmajNT1.2), 5 min): 23.4 ± 1.3 µM; concentrations that killed promastigotes [2]: below 20 μM; EC50 ([2]; Leishmania major, WT promastigotes, 72 h + 48 h with dye, n ≥ 4, read-out: EC50): 18 ± 1.6 µM; EC50 (Lmaj5FURes; Leishmania major): 110 ± 17 µM; RF (Resistance Factor = IC50 (resistant clone)/IC50 (WT)) (Lmaj5FURes; Lmaj5FURes vs L. major WT): 6.1; EC50 (Lmaj5F2′dURes; Leishmania major): 1230 ± 340 µM; RF (Resistance Factor = IC50 (resistant clone)/IC50 (WT)) (Lmaj5F2′dURes; Lmaj5F2′dURes vs L. major WT): 68; EC50 (Lmex5F2′dURes; Leishmania mexicana): > 5000 µM; RF (Resistance Factor = IC50 (resistant clone)/IC50 (WT)) (Lmex5F2′dURes; Lmex5F2′dURes vs L. mexicana WT): 1; EC50 (Lmex5FURes; Leishmania mexicana): > 5000 µM; RF (Resistance Factor = IC50 (resistant clone)/IC50 (WT)) (Lmex5FURes; Lmex5FURes vs L. mexicana WT): 1; EC50 ([3]; Leishmania mexicana, 72 h, WT promastigotes, 72 h + 48 h with dye, n ≥ 4, read-out: EC50): > 5000 µM; activity against L. mexicana promastigotes [3]: insensitive; activity against L. mexicana promastigotes ([3]; listed as 5-fluorouridine): no activity; dCMP peak intensity (L. major promastigotes; [9]): 6744 ± 3500 arbitrary units; dUrd peak intensity (L. major promastigotes; untreated: 712 ± 105): 8145 ± 1684^∗ arbitrary units; dCTP peak intensity (L. major promastigotes; untreated: 995 ± 109): 5477 ± 1350^∗ arbitrary units; dAdo peak intensity (L. major promastigotes; untreated: 2992 ± 173): 11818 ± 839^∗∗ arbitrary units; dAMP peak intensity (L. major promastigotes; untreated: 6192 ± 910): 18001 ± 2307^∗ arbitrary units; dADP peak intensity (L. major promastigotes; untreated: not detected): 6482 ± 3260 arbitrary units; dCDP peak intensity (L. major promastigotes; untreated: not detected): 6904 ± 384^∗∗ arbitrary units; dCMP peak intensity [4, 9]: 12757 ± 1038^∗∗ arbitrary units; dUrd peak intensity ([4]; untreated: 304 ± 155): 6439 ± 456^∗ arbitrary units; dADP peak intensity ([4]; untreated: 1458): 9404 ± 1389^∗ arbitrary units; dAdo peak intensity ([4]; untreated: 2585 ± 811): 8045 ± 4537 arbitrary units; dAMP peak intensity ([4]; untreated: 10660 ± 2897): 21978 ± 1784^∗∗ arbitrary units; dCDP peak intensity ([4]; untreated: not detected): 10404 ± 1470^∗ arbitrary units; dCTP peak intensity ([4]; untreated: not detected): 2338 ± 428^∗ arbitrary units

Question: How did the Ki (LmajNT1 [5]) turn out when `Cc1cn([C@H]2C[C@H](O)[C@@H](CO)O2)c(=O)[nH]c1=O` [thymidine] was run?
Answer: 60.9 ± 8.4 µM

Question: What about the “Vmax (1)” value (LmajNT1 [1]; [3H]-thymidine, high affinity component) of the same compound?
Answer: 0.023 ± 0.003 pmol(10^7 cells)^−1s^−1

Question: What about the Km (LmajNT1 [1]; [3H]-thymidine, high affinity component, Lineweaver-Burke plot, n = 5, read-out: Km (1)) of the same compound?
Answer: 4.2 ± 1.09 µM

Question: And the “Vmax (2)” value (LmajNT1 [1]; [3H]-thymidine, lower affinity component)?
Answer: 0.14 ± 0.03 pmol(10^7 cells)^−1s^−1

Question: What about the Km (LmajNT1 [1]; n = 5, read-out: average Km from Michaelis-Menten saturation plots (single-component fit)) of the same compound?
Answer: 30.7 ± 2.1 µM

Question: What about the Km (LmajNT1 [1]; single experiment shown in Fig. 5C, read-out: apparent Km, higher affinity component) of the same compound?
Answer: 1.26 µM

Question: What about the Km (LmajNT1 [1]; single experiment shown in Fig. 5C, read-out: apparent Km, lower affinity component) of the same compound?
Answer: 17.1 µM

Question: And the Ki (LmexNT1 [6])?
Answer: 16.5 ± 0.4 µM

Question: And the Ki (LmexNT1 [7])?
Answer: 9.98 ± 2.67 µM

Question: And the Ki (LmajUUT1)?
Answer: 60.9 ± 8.4 µM

Question: And the rate of uptake (LmexNT1 [8]; linear over 30 s (Fig. 1A))?
Answer: 0.082 ± 0.005 pmol(10^7 cells)^−1s^−1

Question: What about the rate of uptake (LmexNT1 [8]; over 2 min (Fig. 1B)) of the same compound?
Answer: 0.051 ± 0.002 pmol(10^7 cells)^−1s^−1

Question: What about the Vmax (LmexNT1 [8]; [3H]-thymidine) of the same compound?
Answer: 1.53 ± 0.28 pmol(10^7 cells)^−1s^−1

Question: What about the Km (LmexNT1 [8]; [3H]-thymidine, n = 3) of the same compound?
Answer: 11.2 ± 2.4 µM

— PMC5407577, “Functional and genetic evidence that nucleoside transport is highly conserved in Leishmania species: Implications for pyrimidine-based chemotherapy” (International Journal for Parasitology: Drugs and Drug …, 2017)
